Results on 22 molecules are retold here after US20250154147A1, “NOVEL AMINE-SUBSTITUTED PHTHALAZINES AND DERIVATIVES AS SOS1 INHIBITORS” (Jazz Pharmaceuticals Ireland Limited, priority 2022, published 2025).

For the test, the target named is SOS1 binding to KRAS-WT (Homo sapiens (Human), UniProt Q07889). The test is described as follows: SOS1/KRAS WT HTRF binding assay (FRET-based protein-protein interaction assay). Particulars: 40 nM GST-KRAS-WT, 40 nM His6-SOS1 exchange domain, at least two independent replicates; for IC50: read-out: SOS1/KRAS WT HTRF Binding assay pIC50 (converted). (Time-resolved FRET reads energy transfer from a long-lived donor to a nearby acceptor.)
SOS1 binding to KRAS-WT, sequence (Q07889 564-1049): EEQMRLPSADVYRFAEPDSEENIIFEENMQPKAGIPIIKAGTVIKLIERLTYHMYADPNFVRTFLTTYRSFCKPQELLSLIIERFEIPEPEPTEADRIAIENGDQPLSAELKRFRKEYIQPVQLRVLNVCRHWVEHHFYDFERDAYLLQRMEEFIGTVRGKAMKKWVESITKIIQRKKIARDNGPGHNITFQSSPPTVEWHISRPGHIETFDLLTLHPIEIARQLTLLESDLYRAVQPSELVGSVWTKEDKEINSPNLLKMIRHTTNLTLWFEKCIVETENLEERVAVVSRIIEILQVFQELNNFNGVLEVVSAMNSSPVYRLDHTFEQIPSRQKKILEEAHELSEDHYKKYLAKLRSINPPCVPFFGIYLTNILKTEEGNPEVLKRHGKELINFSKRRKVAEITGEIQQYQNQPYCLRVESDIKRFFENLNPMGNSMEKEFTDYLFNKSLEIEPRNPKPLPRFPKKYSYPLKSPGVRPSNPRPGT

Molecules are shown by their SMILES.

From the text: The capacity of compounds to inhibit SOS1 binding to KRAS-WT (wild-type) was quantified using a FRET-based protein-protein interaction assay. The assay is based on the transfer of energy between two fluorophores, a donor and an acceptor, when in close proximity. In this instance, the donor is a Europium-conjugated α-GST antibody that binds to GST-tagged KRAS-WT, and the acceptor is an XL665-conJugated α-His6 antibody that binds to His6-tagged SOS1. Binding of SOS1 to KRAS-WT results in an increased fluorescent signal at emission wavelength of 665 nm which can be detected on the EnVision plate reader. Compounds that inhibit binding will reduce the 665 nm signal emitted. Recombinant KRAS-WT protein (40 nM; Human KRAS, aal-188 recombinant protein with N-terminal GST-tag) and SOS1 protein (40 nM; Human SOS1 exchange domain, aa564-1049 with N-terminal 6His-tag) were mixed together in assay buffer (5 mM HEPES pH7.3, 150 mM NaCl, 10 mM EDTA, 5 mM MgCl2, 0.05% BSA, 0.0025% NP-40, 1 mM DTT and 100 mM KF) and incubated at room temperature with a dose response of compound in a 384-well low volume white plate and a final volume of 5 ul. After a 60 minute incubation, 5 ul of 4 nM anti-GST-Eu(K) (Cisbio, France) combined with 20 nM anti-6His-XL665 (Cisbio, France), diluted in assay buffer, was added to the plate. Following a further 4 h incubation at room temperature, time-resolved fluorescence was measured on the EnVision plate reader. DMSO (0.05%) and 10 μM reference compound were used to generate the Max and Min assay signals, respectively. Data was analyzed using a four-parameter logistic model to calculate IC50 values, with at least two independent replicates performed for each compound.

Turning to `Cc1nnc(NC(C)c2cccc(C(F)(F)F)c2)c2nc(O[C@H]3CCOC3)ccc12` (stereo partly drawn) [Compound 15, 5-methyl-2-[(3S)-tetrahydrofuran-3-yl]oxy-N-[1-[3-(trifluoromethyl)phenyl]ethyl]pyrido[2,3-d]pyridazin-8-amine], the “SOS1/KRAS WT HTRF Binding assay pIC50” value is 6.17.

`Cc1nnc(N[C@H](C)c2cccc(C(F)(F)F)c2)c2cn(C(C)C)c(=O)cc12` [Compound 7, 6-isopropyl-1-methyl-4-[[(1R)-1-[3-(trifluoromethyl)phenyl]ethyl]amino] pyrido[3,4-d]pyridazin-7-one]: the “SOS1/KRAS WT HTRF Binding assay pIC50” value stood at 7.02.

Regarding `Cc1nnc(N[C@H](C)c2cccc(C(F)(F)F)c2)c2cn(C3CCOC3)c(=O)cc12` (mixture of isomers) [Compound 8, 1-methyl-4-[[rac-(1R)-1-[3-(trifluoromethyl)phenyl]ethyl]amino]-6-tetrahydrofuran-3-yl-pyrido[3,4-d]pyridazin-7-one], the IC50 was 234 nM.

`Cc1nnc(N[C@H](C)c2cccc(C(F)(F)F)c2)c2cn(C3(C)CC3)c(=O)cc12` (racemic) [Compound 14, 1-methyl-6-(1-methylcyclopropyl)-4-[[rac-(1R)-1-[3-(trifluoromethyl)phenyl]ethyl]amino] pyrido[3,4-d]pyridazin-7-one]: the IC50 was 58.9 nM.

Regarding `Cc1nnc(N[C@H](C)c2cccc(C(F)F)c2)c2cc(C3=CCCC3)c(=O)n(C)c12` [Compound 11, 3-(cyclopenten-1-yl)-5-[[(1R)-1-[3-(difluoromethyl)phenyl]ethyl]amino]-1,8-dimethyl-pyrido[2,3-d]pyridazin-2-one], the IC50 is 178 nM.

With `Cc1nnc(N[C@H](C)c2cccc(C(F)(F)F)c2)c2cn(CC3CC3)c(=O)cc12` [Compound 4, 6-(cyclopropylmethyl)-1-methyl-4-[[(1R)-1-[3-(trifluoromethyl)phenyl]ethyl]amino] pyrido[3,4-d]pyridazin-7-one], the “SOS1/KRAS WT HTRF Binding assay pIC50” value came to 6.52.

For `CC(=O)N1CCCC(c2cc3c(N[C@H](C)c4cccc(C(F)(F)F)c4)nnc(C)c3n(C)c2=O)C1` (stereo partly drawn) [Compound 18, 3-(1-acetyl-3-piperidyl)-1,8-dimethyl-5-[[(1R)-1-[3-(trifluoromethyl)phenyl]ethyl]amino] pyrido[2,3-d]pyridazin-2-one], the “SOS1/KRAS WT HTRF Binding assay pIC50” value worked out at 7.36.

For `CC(=O)N1CC=C(c2cc3c(N[C@H](C)c4cccc(C(F)(F)F)c4)nnc(C)c3n(C)c2=O)CC1` (racemic) [Compound 19, 3-(1-acetyl-3,6-dihydro-2H-pyridin-4-yl)-1,8-dimethyl-5-[[rac-(1R)-1-[3-(trifluoromethyl)phenyl]ethyl]amino] pyrido[2,3-d]pyridazin-2-one], the IC50 was 36.3 nM.

For `Cc1nnc(N[C@H](C)c2cccc(C(F)(F)F)c2)c2cc(C3=CCCC3)c(=O)n(C)c12` [Compound 12, 3-(cyclopenten-1-yl)-1,8-dimethyl-5-[[(1R)-1-[3-(trifluoromethyl)phenyl]ethyl]amino] pyrido[2,3-d]pyridazin-2-one], the “SOS1/KRAS WT HTRF Binding assay pIC50” value was 6.96.

Regarding `Cc1nnc(N[C@H](C)c2cccc(C(F)(F)F)c2)c2cc(C3=CCCNC3)c(=O)n(C)c12` [Compound 16, 1,8-dimethyl-3-(1,2,3,6-tetrahydropyridin-5-yl)-5-[[(1R)-1-[3-(trifluoromethyl)phenyl]ethyl]amino] pyrido[2,3-d]pyridazin-2-one], the “SOS1/KRAS WT HTRF Binding assay pIC50” value is reported as 7.30.

As to `CCn1cc2c(N[C@H](C)c3cccc(C(F)(F)F)c3)nnc(C)c2cc1=O` [Compound 3, 6-ethyl-1-methyl-4-[[(1R)-1-[3-(trifluoromethyl)phenyl]ethyl]amino] pyrido[3,4-d]pyridazin-7-one], the “SOS1/KRAS WT HTRF Binding assay pIC50” value stood at 6.46.

On to `Cc1nnc(N[C@H](C)c2cccc(C(F)(F)F)c2)c2cc(O[C@H]3CCOC3)cnc12` [Compound 10, 8-methyl-3-[(3S)-tetrahydrofuran-3-yl]oxy-N-[(1R)-1-[3-(trifluoromethyl)phenyl]ethyl]pyrido[2,3-d]pyridazin-5-amine], for which the “SOS1/KRAS WT HTRF Binding assay pIC50” value worked out at 6.76.

In the case of `Cc1nnc(N[C@H](C)c2cccc(C(F)F)c2)c2cc(C3CCN(C)CC3)c(=O)n(C)c12` (racemic) [Compound 21, 1,8-dimethyl-3-(1-methyl-4-piperidyl)-5-[[rac-(1R)-1-[3-(difluoromethyl)phenyl]ethyl]amino] pyrido[2,3-d]pyridazin-2-one], the IC50 is 53.7 nM.

With `Cc1nnc(N[C@H](C)c2cccc(C(F)F)c2)c2cc(C3CCOCC3)c(=O)n(C)c12` (racemic) [Compound 20, 1,8-dimethyl-5-[[rac-(1R)-1-[3-(difluoromethyl)phenyl]ethyl]amino]-3-tetrahydropyran-4-yl-pyrido[2,3-d]pyridazin-2-one], the IC50 is 93.3 nM.

Take `Cc1nnc(N[C@H](C)c2cccc(C(F)(F)F)c2)c2cn(C3CC3)c(=O)cc12` [Compound 13, 6-cyclopropyl-1-methyl-4-[[(1R)-1-[3-(trifluoromethyl)phenyl]ethyl]amino] pyrido[3,4-d]pyridazin-7-one]: the “SOS1/KRAS WT HTRF Binding assay pIC50” value is listed as 7.20.

Turning to `Cc1nnc(NC(C)c2cccc(C(F)(F)F)c2)c2cc(O[C@H]3CCOC3)cnc12` (stereo partly drawn) [Compound 9, 8-methyl-3-[(3S)-tetrahydrofuran-3-yl]oxy-N-[1-[3-(trifluoromethyl)phenyl]ethyl]pyrido[2,3-d]pyridazin-5-amine], the “SOS1/KRAS WT HTRF Binding assay pIC50” value is 6.60.

`Cc1nnc(NC(C)c2cccc(C(F)(F)F)c2)c2cn(C3CCCC3)c(=O)cc12` (stereo not shown) [Compound 1, 6-cyclopentyl-1-methyl-4-[1-[3-(trifluoromethyl)phenyl]ethylamino] pyrido[3,4-d]pyridazin-7-one]: the “SOS1/KRAS WT HTRF Binding assay pIC50” value is reported as 6.72.

As for `Cc1nnc(N[C@H](C)c2cccc(C(F)(F)F)c2F)c2cc(C3CCNCC3)c(=O)n(C)c12` [Compound 23, 5-[[(1R)-1-[2-fluoro-3-(trifluoromethyl)phenyl]ethyl]amino]-1,8-dimethyl-3-(4-piperidyl)pyrido[2,3-d]pyridazin-2-one], the “SOS1/KRAS WT HTRF Binding assay pIC50” value worked out at 7.24.

With `Cc1nnc(N[C@H](C)c2cccc(C(F)(F)F)c2)c2cn(C3CCCC3)c(=O)cc12` [Compound 2, 6-cyclopentyl-1-methyl-4-[[(1R)-1-[3-(trifluoromethyl)phenyl]ethyl]amino] pyrido[3,4-d]pyridazin-7-one], the “SOS1/KRAS WT HTRF Binding assay pIC50” value was found to be 7.11.

For `Cc1nnc(N[C@H](C)c2cccc(C(F)(F)F)c2)c2cn(CC3(C)COC3)c(=O)cc12` [Compound 6, 1-methyl-6-[(3-methyloxetan-3-yl)methyl]-4-[[(1R)-1-[3-(trifluoromethyl)phenyl]ethyl]amino] pyrido[3,4-d]pyridazin-7-one], the “SOS1/KRAS WT HTRF Binding assay pIC50” value came to 6.34.

For the molecule `CC(=O)N1CCC(c2cc3c(N[C@H](C)c4cccc(C(F)F)c4)nnc(C)c3n(C)c2=O)CC1` [Compound 22, 3-(1-acetyl-4-piperidyl)-5-[[(1R)-1-[3-(difluoromethyl)phenyl]ethyl]amino]-1,8-dimethyl-pyrido[2,3-d]pyridazin-2-one], the IC50 was 35.5 nM.

Turning to `Cc1nnc(N[C@H](C)c2cccc(C(F)(F)F)c2)c2cn(CC3COC3)c(=O)cc12` [Compound 5, 1-methyl-6-(oxetan-3-ylmethyl)-4-[[(1R)-1-[3-(trifluoromethyl)phenyl]ethyl]amino] pyrido[3,4-d]pyridazin-7-one], the “SOS1/KRAS WT HTRF Binding assay pIC50” value is listed as 6.52.
